Test in all cases: DTP human tumour cell line panel, 48 h
For assay [1], the system named is RXF 393.
Assay [2] has as its system OVCAR-3.
The test system of assay [3] is Malme-3M.
The subject of assay [4] is SK-MEL-5.
The subject of assay [5] is SW-620.
For assay [6], the system named is SN12C.
The test system of assay [7] is ACHN.
Assay [8] relates to U-251.
For assay [9], the system named is UACC-257.
In assay [10] the test system is COLO 205.
Assay [11] deals with SK-MEL-28.
In assay [12] the test system is NCI-H522.
The test system of assay [13] is LOX IMVI.
The test system of assay [14] is UO-31.
Assay [15] relates to 786-0.
Assay [16] deals with SF-295.
The test system of assay [17] is MDA-MB-231.
The subject of assay [18] is PC-3.
Assay [19] relates to MDA-MB-435.

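Results reflect a 48-hour exposure of cells in 96-well plates to compound at five concentrations. Abbreviation: GI50, concentration required for 50% inhibition of growth.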 Activity calls are given as the source filed them. Rule as the data show it: active = GI50 up to about 1.1 µM and inactive = higher.

The values below come from ChEMBL document CHEMBL1201862, “PubChem BioAssay data set” (2004).

In general, GI50 refers to the concentration giving 50% growth inhibition. As to `Cc1ccc(S(=O)(=O)Nc2cccc3c(=O)nc[nH]c23)cc1`, the GI50 in assay [1] is > 65.3 µM (inactive); in [2] it was > 100 µM (inactive); in assay [3], > 100 µM (inactive); in [4], 43.9 µM (inactive); in assay [5], > 100 µM (inactive); in assay [6] it was > 100 µM (inactive). Also, the GI50 is 66.8 µM (inactive) in assay [7]; > 100 µM (inactive) in assay [8]; > 87.5 µM (inactive) in [9]; > 100 µM (inactive) in assay [10]; > 100 µM (inactive) in assay [11]; 76.6 µM (inactive) in [12]. Also, the GI50 is 96.6 µM (inactive) in assay [13], > 68.1 µM (inactive) in assay [14], > 100 µM (inactive) in [15] and 82.6 µM (inactive) in [16].

`Cc1cc2c3c(coc3c1-c1c(C)cc3c4c(coc14)C(=O)C(O)=C3C(C)C)C(=O)C(O)=C2C(C)C`: the GI50 in [1] was 10.3 µM (inactive); in assay [2], 5.45 µM (inactive); in assay [3], 15.6 µM (inactive); in assay [4], 15.1 µM (inactive); in assay [5] it was 5.2 µM (inactive); in [6] it was 10.1 µM (inactive). Moreover, the GI50 was 3.51 µM (inactive) in assay [7]; 3.66 µM (inactive) in assay [8]; 14.3 µM (inactive) in [9]; 2.41 µM (inactive) in assay [10]; 10.1 µM (inactive) in [11]; 5.92 µM (inactive) in assay [12]. Moreover, the GI50 in assay [13] was 5.7 µM (inactive); in assay [14], 16.6 µM (inactive); in [15] it was 10.1 µM (inactive); in assay [16], 5.37 µM (inactive).

With `NS(=O)(=O)c1nnc(NS(=O)(=O)c2ccc([N+](=O)[O-])cc2)s1`, the GI50 in [1] is > 100 µM (inactive); in assay [2] it was > 100 µM (inactive); in [3], > 100 µM (inactive); in [4], 69.2 µM (inactive); in assay [17] it was > 100 µM (inactive); in assay [18] it was > 100 µM (inactive). Moreover, the GI50 in assay [5], in [7], in assay [8], in assay [19], in [10] and in [11] was > 100 µM (inactive) throughout. Moreover, the GI50 was 29.6 µM (inactive) in assay [12]; 30.4 µM (inactive) in [13]; > 100 µM (inactive) in [14]; 37.1 µM (inactive) in assay [15]; > 100 µM (inactive) in assay [16].

Take `CC(=O)C1Cn2c(=O)c3cc4ccccc4cc3c(=O)n2C=C1C` (configuration not stated): the GI50 was > 100 µM (inactive) in assay [1]; > 100 µM (inactive) in [2]; > 100 µM (inactive) in assay [3]; 91.4 µM (inactive) in assay [4]; > 100 µM (inactive) in assay [5]; > 100 µM (inactive) in assay [6]. In addition, the GI50 in [7], in assay [8], in assay [9], in [10], in assay [11] and in assay [12] was > 100 µM (inactive) in each case. The GI50 in [13], in assay [14], in [15] and in assay [16] was > 100 µM (inactive) throughout.

As for `O=C(c1cccs1)N(C(=S)N1CCN(c2ccccn2)CC1)C1CCCCC1`, the GI50 in assay [1] is 22.5 µM (inactive); in assay [2] it was 57.3 µM (inactive); in [3], 36.3 µM (inactive); in assay [4], 31.3 µM (inactive); in [5], > 100 µM (inactive); in assay [6], > 100 µM (inactive). For the same compound, the GI50 is 69.2 µM (inactive) in assay [7]; 79.1 µM (inactive) in assay [8]; 50.9 µM (inactive) in assay [9]; 22.4 µM (inactive) in assay [10]; > 100 µM (inactive) in [11]; 66.2 µM (inactive) in assay [12]. The GI50 in assay [13] is 77.4 µM (inactive); in assay [14], 44.4 µM (inactive); in assay [15], > 100 µM (inactive); in assay [16] it was > 100 µM (inactive).

For `CC1=C(C(=O)Nc2cc(F)c(F)cc2F)C(c2cccc([N+](=O)[O-])c2)C(C(=O)Nc2ccccc2C(F)(F)F)=C(C)N1` (configuration not stated), the GI50 was 13.9 µM (inactive) in assay [1]; 16.8 µM (inactive) in [2]; 25.4 µM (inactive) in assay [3]; 22.1 µM (inactive) in [4]; 31 µM (inactive) in assay [5]; 19.8 µM (inactive) in [6]. The GI50 in assay [7] is 21.1 µM (inactive); in assay [8], 16.9 µM (inactive); in [9], 23.4 µM (inactive); in [10] it was 28.7 µM (inactive); in assay [11], 22 µM (inactive); in assay [12], 13.8 µM (inactive). Also, the GI50 in assay [13] was 17.9 µM (inactive); in assay [14] it was 12.3 µM (inactive); in assay [15] it was 17.3 µM (inactive); in assay [16] it was 23.4 µM (inactive).

As to `Nc1cccc(S(=O)(=O)NCC(=O)O)c1`, the GI50 in assay [1], in [2], in assay [3], in assay [4], in [5] and in assay [6] was > 100 µM (inactive) throughout. Also, the GI50 in assay [7], in assay [8], in assay [9], in assay [10], in assay [11] and in assay [12] was > 100 µM (inactive) each time. In addition, the GI50 in assay [13] was > 100 µM (inactive); in [14], 73.5 µM (inactive); in assay [15] it was > 100 µM (inactive); in assay [16] it was > 100 µM (inactive).

As to `COc1cc(S(=O)(=O)Nc2ccc(-c3csc(N4C(=O)C(C)SC4c4cccs4)n3)cc2)ccc1Cl` (configuration not stated), the GI50 was 11.1 µM (inactive) in [1]; 58.5 µM (inactive) in assay [2]; 60.5 µM (inactive) in [3]; 41.3 µM (inactive) in [4]; 15.7 µM (inactive) in [18]; 34.4 µM (inactive) in assay [5]. Also, the GI50 in assay [6] was 39.3 µM (inactive); in assay [7] it was > 100 µM (inactive); in assay [19] it was 30 µM (inactive); in assay [10] it was 24.9 µM (inactive); in [11], 23.8 µM (inactive); in assay [12], 20.6 µM (inactive). Moreover, the GI50 in assay [13] is 5.27 µM (inactive); in [14] it was 46.3 µM (inactive); in assay [15] it was 34.6 µM (inactive); in assay [16], > 100 µM (inactive).

Take `CCCC1C[C@H]2CCCCN2[C@H]2CCCN12` (some centres not stated): the GI50 in [1] was > 48.2 µM (inactive); in assay [2], > 100 µM (inactive); in assay [3] it was > 100 µM (inactive); in assay [4] it was > 100 µM (inactive); in [5] it was > 37.8 µM (inactive); in assay [6], > 100 µM (inactive). For the same compound, the GI50 in assay [7] is > 100 µM (inactive); in [8], > 44.4 µM (inactive); in [9], > 100 µM (inactive); in [10], > 47.4 µM (inactive); in assay [11], > 100 µM (inactive); in [12], > 100 µM (inactive). Further, the GI50 is > 39.4 µM (inactive) in assay [13], > 100 µM (inactive) in assay [14], > 100 µM (inactive) in assay [15] and > 100 µM (inactive) in assay [16].

For `CCOc1ccc(NCc2cc(OC)c(OC)c(OC)c2)cc1`, the concentration for 50% growth inhibition (GI50) in assay [2] is 0.339 µM (active); in assay [4] it was 0.506 µM (active); in assay [17], 2.5 µM (inactive); in assay [18] it was 1.5 µM (inactive); in assay [5], 0.35 µM (active); in [7], 10.7 µM (inactive). Also, the concentration for 50% growth inhibition (GI50) in [8] was 0.513 µM (active); in [9], 20.9 µM (inactive); in [10] it was 0.384 µM (active); in assay [11], 2.57 µM (inactive); in [12] it was 0.333 µM (active); in assay [13], 0.643 µM (active). Moreover, the GI50 in assay [14] was 4.8 µM (inactive); in assay [15], 0.723 µM (active); in assay [16], 0.306 µM (active).

For `Cc1ccc(NC(=O)CC/C(CC(=O)c2ccc(Cl)cc2)=N\NC(=O)C(=O)NN)cc1C`, the GI50 in assay [1], in assay [2], in assay [3], in assay [4], in assay [5] and in assay [6] was > 100 µM (inactive) throughout. The GI50 in [7], in assay [8], in assay [9], in assay [10], in assay [11] and in assay [12] was > 100 µM (inactive) in each case. Besides, the GI50 in assay [13], in assay [14], in assay [15] and in assay [16] was > 100 µM (inactive) in each case.

`CCOP1(=O)C=CC(Cl)=C(C)C1` (configuration not stated): the GI50 in assay [1] was 4.27 µM (inactive); in assay [2] it was 19.9 µM (inactive); in [3], 14.3 µM (inactive); in [4], 17.7 µM (inactive); in assay [5], 11.5 µM (inactive); in [6], 11.7 µM (inactive). Moreover, the GI50 in assay [7] was 8.63 µM (inactive); in assay [8], 24.4 µM (inactive); in assay [9], 15.5 µM (inactive); in assay [10], 19.1 µM (inactive); in assay [11], 16.2 µM (inactive); in assay [12], 4.04 µM (inactive). For the same compound, the GI50 in [13] is 19.2 µM (inactive); in assay [14], 25.6 µM (inactive); in assay [15], 15.6 µM (inactive); in [16] it was 35.2 µM (inactive).
